In EP0210227B1, “PYRIMIDINE SULFATES FOR HAIR GROWTH” (THE UPJOHN COMPANY, priority 1985, dated 1986):
Counter-ions that a name gives are not always drawn.

Tests used:
Format in all cases: in vivo
Balb/c nu/nu male mice = experiment: Hair growth in nude mice, daily oral or topical drug (Example 3); conditions: six week old mice
Excerpt: (§1) The present invention is illustrated by the Examples, below. Examples 1-3 illustrate the effect of minoxidil sulfate (a compound of the present invention) and minoxidil (the corresponding N-oxide) in genetically identical hair-deficient mice called "nude" (nu/nu) (see Flanagen, Genet. Res. 8:295-309 (1966)). […] All mice in the species mus grow hair in a definite, 20 day cycle, going from head to tail (see Barom, Acta Path. Micro. Scan. 34: 521-541 (1954)). "Nude" mice have the same pattern (see Eton, Transplantation 22: 217-222 (1976)). Hair fails to appear in the nude mouce since it never emerges due to the fact that the hair shaft is incompletely formed, poorly keratinized, or both. The nacent hair shafts fragment within the follicle and thus never emerge or break near the skin surface. The hair produced in the nude mice treated with the compounds described below is more normal and mechanically competent to emerge and persit. Eventually, however, even the hair produced in the drug treated animals falls out due to the genetic defect of these animals. Nonetheless, significant differences in hair growth can be observed in the drug treated animals as compared to the control animals during the twenty day cycle.
(§2) In the Examples, five photographs were taken of the animals every six days over a four week period.
Six week old Balb/c nu/nu male mice were given daily oral drug (without resting on weekends) in 0.25 ml water. Topical minoxidil sulfate was applied in 0.25 ml of a propylene glycol, ethanol, and watervehicle.

[1] = tested on: hair-deficient mice called "nude" (nu/nu); experiment: Hair growth in nude mice, oral drug daily without resting on weekends (Example 2); conditions: for Score of Photos 1+ (Number of animals with at least 1 of 5 photos showing positive hair growth) / Score of Photos 2+ (Number of animals with at least 2 of 5 photos showing positive hair growth): Example 2, daily, eleven week old mice; for inducing hair growth, compared with minoxidil: summary of Table I in words
Excerpt: as §1, §2
Eleven week old mice from the same group fo animals as used in Example 1 were treated by oral administration of 0.25 ml of either minoxidil or minoxidil sulfate in water daily without resting on weekends. Weights were assumed to be an average of 25 g per animal for dosing purposes.

stumptail Macque monkeys = experiment: Hair growth rate on the scalp of balding monkeys, topical solution (Example 4); conditions: for Mean wt. (clipped hair, 2.54 cm square area of treated scalp): topical daily, 250 microliters of 750 mg in 50 ml acetone:N-methylpyrrolidone 94:6
Experimental: Topical minoxidil sulfate solution was applied to a group of 6 stumptail Macque monkeys daily, 7 days/ week. The topical minoxidil sulfate solution was prepared by dissolving 750 mg of minoxidil sulfate in 50 ml of a 94:6 volume:volume solution of acetone: N-methylpyrrolidone. A second group of 6 animals served as controls and received vehicle only. the volume per application was 250 microliters applied to the frontal scalp with an art brush. Hair growth rate within a 2.54 cm (1 inch) square area of treated scalp was assessed by quantitatively clipping the hair at successive intervals of 42 days, 21 days and 21 days and weighing the residue.

[2] = 20 mg/kg topical in propylene glycol, ethanol and water vehicle
[3] = 40 mg/kg topical in propylene glycol, ethanol and water vehicle

**Q.** What does the source list for `Nc1cc(N2CCCCC2)nc(N)[n+]1OS(=O)(=O)[O-]` [Minoxidil Sulfate, 2,6-Diamino-4-(1-piperidinyl)-1-(sulfoxy)-pyrimidinium hydroxide, inner salt]?
**A.** Score of Photos 1+ (Number of animals with at least 1 of 5 photos showing positive hair growth) (Balb/c nu/nu male mice; 5 mg/kg oral, daily): 2/5; Score of Photos 2+ (Number of animals with at least 2 of 5 photos showing positive hair growth) (Balb/c nu/nu male mice; 5 mg/kg oral, daily): 1/5; Score of Photos 1+ (Number of animals with at least 1 of 5 photos showing positive hair growth) (Balb/c nu/nu male mice; 10 mg/kg oral, daily): 1/5; Score of Photos 2+ (Number of animals with at least 2 of 5 photos showing positive hair growth) (Balb/c nu/nu male mice; 10 mg/kg oral, daily): 1/5; Score of Photos 1+ (Number of animals with at least 1 of 5 photos showing positive hair growth) (Balb/c nu/nu male mice; 20 mg/kg oral, daily): 2/5; Score of Photos 2+ (Number of animals with at least 2 of 5 photos showing positive hair growth) (Balb/c nu/nu male mice; 20 mg/kg oral, daily): 1/5; Score of Photos 1+ (Number of animals with at least 1 of 5 photos showing positive hair growth) (Balb/c nu/nu male mice; [2]): 2/5; Score of Photos 2+ (Number of animals with at least 2 of 5 photos showing positive hair growth) (Balb/c nu/nu male mice; [2]): 0/5; Score of Photos 1+ (Number of animals with at least 1 of 5 photos showing positive hair growth) (Balb/c nu/nu male mice; 40 mg/kg oral, daily): 3/5; Score of Photos 2+ (Number of animals with at least 2 of 5 photos showing positive hair growth) (Balb/c nu/nu male mice; 40 mg/kg oral, daily): 0/5; Score of Photos 1+ (Number of animals with at least 1 of 5 photos showing positive hair growth) (Balb/c nu/nu male mice; [3]): 2/5; Score of Photos 2+ (Number of animals with at least 2 of 5 photos showing positive hair growth) (Balb/c nu/nu male mice; [3]): 1/5; Score of Photos 1+ (Number of animals with at least 1 of 5 photos showing positive hair growth) ([1]; 20 mg/kg oral): 4/5; Score of Photos 2+ (Number of animals with at least 2 of 5 photos showing positive hair growth) ([1]; 20 mg/kg oral): 3/5; Score of Photos 1+ (Number of animals with at least 1 of 5 photos showing positive hair growth) ([1]; 40 mg/kg oral): 3/5; Score of Photos 2+ (Number of animals with at least 2 of 5 photos showing positive hair growth) ([1]; 40 mg/kg oral): 1/5; inducing hair growth, compared with minoxidil ([1]; at 20 mg/kg): significantly better than minoxidil; inducing hair growth, compared with minoxidil ([1]; at 40 mg/kg): equipotent to or better than minoxidil; Mean wt. (clipped hair, 2.54 cm square area of treated scalp) (stumptail Macque monkeys; Collection 1 (interval of 42 days)): 76 ±20 uG/day; Mean wt. (clipped hair, 2.54 cm square area of treated scalp) (stumptail Macque monkeys; Collection 2 (next interval of 21 days)): 313 ±67 uG/day; Mean wt. (clipped hair, 2.54 cm square area of treated scalp) (stumptail Macque monkeys; Collection 3 (last interval of 21 days)): 343 ±52 uG/day; hair growth following topical application to the scalp (stumptail Macque monkeys; balding monkeys, summary of Table II in words): stimulates hair growth; increase in hair growth versus vehicle (stumptail Macque monkeys; by the third collection, summary of Table II in words): statistically significant increase in hair growth
